# Experimental data: US6268366A, “Amide derivatives of substituted quinoxaline 2,3-diones as glutamate receptor antagonists” (Warner-Lambert Company, priority 2000, dated 2001)
# Columns and labels:
# AMPA receptors = test: AMPA receptor binding affinity (Honore et al.)
# [1] = target: kainate site (non-NMDA receptor); test: kainate site (non-NMDA receptor) binding affinity (London and Coyle)
# [2] = target: T1, glycine (GLY) site of the NMDA receptor (Rattus norvegicus, UniProt P35439); test: glycine (GLY) site of the NMDA receptor binding affinity (Jones et al.)
# T1 construct: measured as described in Jones S. M., et al., Pharmacol. Methods, 1989;21:161; from tissue
# CF-1 strain mice = test: maximal electroshock (MES) assay in CF-1 strain mice, corneal electrodes; format: in vivo; details: for Ataxic (%) / Protected (%): MES, mice IV; for duration of action in maximal electroshock time course compared with PNQX: mice, 30 mg/kg IV, versus standard PNQX, FIGS. 1 and 2
# Method: Additionally, as a preliminary indicator of in vivo CNS activity related to anticonvulsant activity and potential neuroprotection, a maximal electroshock assay in CF-1 strain mice (20-25 g) was performed with corneal electrodes by conventional methods as described previously (Krall, et al., Epilepsia, 1988;19:409-428).
# FIGS. […] The graph is the percent of mice protected versus the time in minutes.
smiles,measurement,setting,value
"CC(=O)N(C)Cc1c(C)c([N+](=O)[O-])cc2[nH]c(=O)c(=O)[nH]c12 [Compound 1, N-Methyl-N-(6-methyl-7-nitro-2,3-dioxo-1,2,3,4-tetrahydro-quinoxalin-5-ylmethyl)-acetamide]",IC50,AMPA receptors,350 nM
same,IC50 KA,[1],1660 nM
same,IC50,[2],30 nM
"Cc1c([N+](=O)[O-])cc2[nH]c(=O)c(=O)[nH]c2c1CN(C)C(=O)C1CCCCC1 [Compound 3, Cyclohexanecarboxylic acid-methyl-(6-methyl-7-nitro-2,3-dioxo-1,2,3,4-tetrahydro-quinoxalin-5-ylmethyl)amide]",IC50,AMPA receptors,910 nM
same,IC50 KA,[1],3210 nM
same,IC50,[2],300 nM
"Cc1c([N+](=O)[O-])cc2[nH]c(=O)c(=O)[nH]c2c1CN(C)C(=O)CC1CCCCC1 [Compound 4, 2-Cyclohexyl-N-methyl-N-(6-methyl-7-nitro-2,3-dioxo-1,2,3,4-tetrahydro-quinoxalin-5-ylmethyl)-acetamide]",IC50,AMPA receptors,2050 nM
same,IC50 KA,[1],2970 nM
same,IC50,[2],200 nM
"Cc1c([N+](=O)[O-])cc2[nH]c(=O)c(=O)[nH]c2c1CN(C)C(=O)Cc1ccccc1 [Compound 5, N-methyl-N-(6-methyl-7-nitro-2,3-dioxo-1,2,3,4-tetrahydro-quinoxalin-5-ylmethyl)-2-phenyl-acetamide]",IC50,AMPA receptors,350 nM
same,IC50 KA,[1],590 nM
same,IC50,[2],20 nM
"Cc1c([N+](=O)[O-])cc2[nH]c(=O)c(=O)[nH]c2c1CN(C)C(=O)c1ccccc1 [Compound 6, N-methyl-N-(6-methyl-7-nitro-2,3-dioxo-1,2,3,4-tetrahydro-quinoxalin-5-ylmethyl)-benzamide]",IC50,AMPA receptors,1220 nM
same,IC50 KA,[1],2770 nM
same,IC50,[2],30 nM
"Cc1c([N+](=O)[O-])cc2[nH]c(=O)c(=O)[nH]c2c1CN(C)C(=O)c1ccc(Cl)cc1 [Compound 7, 4-Chloro-N-methyl-N-(6-Methyl-7-nitro-2,3-dioxo-1,2,3,4-tetrahydro-quinoxalin-5-ylmethyl)-benzamide]",IC50,AMPA receptors,980 nM
same,IC50 KA,[1],1980 nM
same,IC50,[2],40 nM
"Cc1c([N+](=O)[O-])cc2[nH]c(=O)c(=O)[nH]c2c1CN(C)C(=O)c1ccc(C(F)(F)F)cc1 [Compound 8, N-Methyl-N-(6-Methyl-7-nitro-2,3-dioxo-1,2,3,4-tetrahydro-quinoxalin-5-ylmethyl)-4-trifluoromethyl-benzamide]",IC50,AMPA receptors,1920 nM
same,IC50 KA,[1],3700 nM
"Cc1c([N+](=O)[O-])cc2[nH]c(=O)c(=O)[nH]c2c1CN(C)C(=O)c1ccc(Cl)c(Cl)c1 [Compound 9, 3,4-Dichloro-N-methyl-N-(6-methyl-7-nitro-2,3-dioxo-1,2,3,4-tetrahydro-quinoxalin-5-ylmethyl)-benzamide]",IC50,AMPA receptors,1690 nM
same,IC50 KA,[1],3450 nM
"Cc1c([N+](=O)[O-])cc2[nH]c(=O)c(=O)[nH]c2c1CN(C)C(=O)c1ccc([N+](=O)[O-])cc1 [Compound 10, N-Methyl-N-(6-Methyl-7-nitro-2,3-dioxo-1,2,3,4-tetrahydro-quinoxalin-5-ylmethyl)-4-nitro-benzamide]",IC50,AMPA receptors,1120 nM
same,IC50 KA,[1],950 nM
"Cc1c([N+](=O)[O-])cc2[nH]c(=O)c(=O)[nH]c2c1CN(C)C(=O)c1cccs1 [Compound 11, Thiophene-2-carboxylic acid-methyl-(6-methyl-7-nitro-2,3-dioxo-1,2,3,4-tetrahydro-quinoxalin-5-ylmethyl)-amide]",IC50,AMPA receptors,460 nM
same,IC50 KA,[1],1230 nM
same,IC50,[2],8 nM
same,Ataxic (%),"CF-1 strain mice; 5 min, 10 mg/kg",0%
same,Protected (%),"CF-1 strain mice; 5 min, 10 mg/kg",0%
same,Ataxic (%),"CF-1 strain mice; 5 min, 30 mg/kg",40%
same,Protected (%),"CF-1 strain mice; 5 min, 30 mg/kg",40%
same,Ataxic (%),"CF-1 strain mice; 15 min, 10 mg/kg",0%
same,Protected (%),"CF-1 strain mice; 15 min, 10 mg/kg",40%
same,Ataxic (%),"CF-1 strain mice; 15 min, 30 mg/kg",60%
same,Protected (%),"CF-1 strain mice; 15 min, 30 mg/kg",80%
same,Ataxic (%),"CF-1 strain mice; 30 min, 10 mg/kg",0%
same,Protected (%),"CF-1 strain mice; 30 min, 10 mg/kg",40%
same,Ataxic (%),"CF-1 strain mice; 30 min, 30 mg/kg",20%
same,Protected (%),"CF-1 strain mice; 30 min, 30 mg/kg",40%
same,Ataxic (%),"CF-1 strain mice; 60 min, 10 mg/kg",0%
same,Protected (%),"CF-1 strain mice; 60 min, 10 mg/kg",0%
same,Ataxic (%),"CF-1 strain mice; 60 min, 30 mg/kg",20%
same,Protected (%),"CF-1 strain mice; 60 min, 30 mg/kg",40%
same,duration of action in maximal electroshock time course compared with PNQX,CF-1 strain mice,extended duration of action
"Cc1c([N+](=O)[O-])cc2[nH]c(=O)c(=O)[nH]c2c1CN(C)C(=O)c1ccco1 [Compound 12, Furan-2-carboxylic acid methyl-(6-methyl-7-nitro-2,3-dioxo-1,2,3,4-tetrahydro-quinoxalin-5-ylmethyl)-amide]",IC50,AMPA receptors,380 nM
same,IC50 KA,[1],1210 nM
same,IC50,[2],6 nM
same,Ataxic (%),"CF-1 strain mice; 3 min, 30 mg/kg",40%
same,Protected (%),"CF-1 strain mice; 3 min, 30 mg/kg",40%
same,Ataxic (%),"CF-1 strain mice; 15 min, 10 mg/kg",0%
same,Protected (%),"CF-1 strain mice; 15 min, 10 mg/kg",40%
same,Ataxic (%),"CF-1 strain mice; 15 min, 30 mg/kg",60%
same,Protected (%),"CF-1 strain mice; 15 min, 30 mg/kg",80%
same,Protected (%),"CF-1 strain mice; 30 min, 10 mg/kg",40%
same,Ataxic (%),"CF-1 strain mice; 30 min, 30 mg/kg",20%
same,Protected (%),"CF-1 strain mice; 30 min, 30 mg/kg",40%
same,Ataxic (%),"CF-1 strain mice; 60 min, 30 mg/kg",20%
same,Protected (%),"CF-1 strain mice; 60 min, 30 mg/kg",40%
same,duration of action in maximal electroshock time course compared with PNQX,CF-1 strain mice,extended duration of action
"Cc1c([N+](=O)[O-])cc2[nH]c(=O)c(=O)[nH]c2c1CN(C)C(=O)c1cc2ccccc2s1 [Compound 13, Benzo[b]thiophene-2-carboxylic acid methyl-(6-methyl-7-nitro-2,3-dioxo-1,2,3,4-tetrahydro-quinoxalin-5-ylmethyl)-amide]",IC50,AMPA receptors,620 nM
same,IC50 KA,[1],5980 nM
same,IC50,[2],40 nM
"COc1ccc(C(=O)N(C)Cc2c(C)c([N+](=O)[O-])cc3[nH]c(=O)c(=O)[nH]c23)cc1 [Compound 14, 4-Methoxy-N-methyl-N-(6-methyl-7-nitro-2,3-dioxo-1,2,3,4-tetrahydro-quinoxalin-5-ylmethyl)-benzamide]",IC50,AMPA receptors,520 nM
same,IC50 KA,[1],850 nM
same,IC50,[2],5 nM
"CCOC(=O)N(C)Cc1c(C)c([N+](=O)[O-])cc2[nH]c(=O)c(=O)[nH]c12 [Compound 15, Methyl-(6-methyl-7-nitro-2,3-dioxo-1,2,3,4-tetrahydro-quinoxalin-5-ylmethyl)-carbamic acid ethyl ester]",IC50,AMPA receptors,210 nM
same,IC50 KA,[1],290 nM
same,IC50,[2],100 nM
same,Ataxic (%),"CF-1 strain mice; 10 min, 3 mg/kg",0%
same,Protected (%),"CF-1 strain mice; 10 min, 3 mg/kg",0%
same,Ataxic (%),"CF-1 strain mice; 10 min, 10 mg/kg",0%
same,Protected (%),"CF-1 strain mice; 10 min, 10 mg/kg",40%
same,Ataxic (%),"CF-1 strain mice; 30 min, 3 mg/kg",0%
same,Protected (%),"CF-1 strain mice; 30 min, 3 mg/kg",0%
same,Ataxic (%),"CF-1 strain mice; 30 min, 10 mg/kg",0%
same,Protected (%),"CF-1 strain mice; 30 min, 10 mg/kg",60%
